Assay results taken from ChEMBL document CHEMBL2074176, “Multidrug resistance protein 1 (MRP1, ABCC1) mediates resistance to mitoxantrone via glutathione-dependent drug efflux” (Mol Pharmacol, 2006).

Key:
Type in all cases: functional, cell-based
[1] = biological target: T1, Multidrug resistance-associated protein 1 (Homo sapiens, UniProt P33527); experiment: TP_TRANSPORTER: transport in etoposide-selected MCF7 cells
[2] = biological target: T1, Multidrug resistance-associated protein 1; experiment: TP_TRANSPORTER: cell accumulation in MCF7/MRP1-M6 cells
[3] = biological target: T1, Multidrug resistance-associated protein 1; experiment: TP_TRANSPORTER: cell accumulation in MCF7/MRP1-M24 cells
[4] = biological target: T1, Multidrug resistance-associated protein 1; experiment: TP_TRANSPORTER: cell accumulation in MCF7/MRP1-10 cells
[5] = biological target: T1, Multidrug resistance-associated protein 1; experiment: TP_TRANSPORTER: ATP- and GSH-dependent transport in MCF7/MRP1-10 cells

T1 sequence (P33527 whole entry): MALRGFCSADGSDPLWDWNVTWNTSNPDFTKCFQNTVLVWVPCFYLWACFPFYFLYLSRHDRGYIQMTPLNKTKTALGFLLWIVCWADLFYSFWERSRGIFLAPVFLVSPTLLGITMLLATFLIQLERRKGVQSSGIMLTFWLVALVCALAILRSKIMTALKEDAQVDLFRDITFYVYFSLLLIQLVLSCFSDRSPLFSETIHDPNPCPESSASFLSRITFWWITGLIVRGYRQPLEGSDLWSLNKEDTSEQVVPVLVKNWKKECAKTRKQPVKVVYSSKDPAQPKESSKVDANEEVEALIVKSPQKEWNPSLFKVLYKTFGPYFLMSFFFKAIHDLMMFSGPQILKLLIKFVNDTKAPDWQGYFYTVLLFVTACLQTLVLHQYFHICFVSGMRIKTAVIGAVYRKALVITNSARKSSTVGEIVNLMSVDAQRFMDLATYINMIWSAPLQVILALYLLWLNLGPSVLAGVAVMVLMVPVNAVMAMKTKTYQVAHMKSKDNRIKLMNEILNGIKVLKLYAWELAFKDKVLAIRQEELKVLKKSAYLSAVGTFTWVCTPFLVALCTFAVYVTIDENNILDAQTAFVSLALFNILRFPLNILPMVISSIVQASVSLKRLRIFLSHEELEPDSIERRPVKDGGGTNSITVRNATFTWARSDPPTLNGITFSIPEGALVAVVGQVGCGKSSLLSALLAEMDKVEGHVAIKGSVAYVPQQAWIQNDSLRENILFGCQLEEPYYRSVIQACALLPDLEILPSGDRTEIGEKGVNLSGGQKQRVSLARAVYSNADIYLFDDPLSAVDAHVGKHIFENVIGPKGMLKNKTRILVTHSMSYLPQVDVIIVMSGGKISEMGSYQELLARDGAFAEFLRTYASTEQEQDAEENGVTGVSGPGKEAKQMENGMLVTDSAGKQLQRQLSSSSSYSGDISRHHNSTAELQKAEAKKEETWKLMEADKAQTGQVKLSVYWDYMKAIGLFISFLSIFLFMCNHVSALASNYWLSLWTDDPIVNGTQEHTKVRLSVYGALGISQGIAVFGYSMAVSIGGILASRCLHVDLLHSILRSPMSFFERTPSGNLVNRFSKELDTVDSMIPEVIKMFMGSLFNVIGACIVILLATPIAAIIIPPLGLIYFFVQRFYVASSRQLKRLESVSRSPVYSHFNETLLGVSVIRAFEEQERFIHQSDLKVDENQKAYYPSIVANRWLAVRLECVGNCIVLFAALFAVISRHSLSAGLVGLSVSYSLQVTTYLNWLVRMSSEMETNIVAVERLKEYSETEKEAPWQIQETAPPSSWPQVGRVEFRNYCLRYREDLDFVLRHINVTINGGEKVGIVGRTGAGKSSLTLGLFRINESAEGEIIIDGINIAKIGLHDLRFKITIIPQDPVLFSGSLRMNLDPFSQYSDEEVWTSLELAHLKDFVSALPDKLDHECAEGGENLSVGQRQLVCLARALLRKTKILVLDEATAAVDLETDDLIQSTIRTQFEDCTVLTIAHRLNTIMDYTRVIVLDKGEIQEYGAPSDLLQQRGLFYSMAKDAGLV

## O=C1c2c(O)ccc(O)c2C(=O)c2c(NCCNCCO)ccc(NCCNCCO)c21 [MITOXANTRONE]
[1]
  Activity: substrate [+]
[2]
  IC50: 1.5 nM
[3]
  IC50: 1.5 nM
[4]
  IC50: 1.9 nM
[5]
  Activity: substrate [+]
